# Test results reported in the supplement of paper PMC10307832.
# Tests used:
# Assay in all cases: relative viability (nuclei count vs DMSO), 5 days (fraction); higher = more cells survive
# NCI-H3122 = system: NCI-H3122
# How it was run: (§1)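 Each reported value is a median over duplicate plates. It expresses relative viability: treated-well nuclei count divided by vehicle-well nuclei count. Lung cancer cell lines in 1536-well plates were dosed by pin tool a day after seeding, alone with one drug or with a fixed anchor-drug dose plus five library-drug doses (not always all listed) in √10 steps, and nuclei were counted after 5 days.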
# NCI-H322M = system: NCI-H322M
# How it was run: as §1
# HCC-78 = system: HCC-78
# How it was run: as §1
# NCI-H1993 = system: NCI-H1993
# How it was run: as §1
# EPLC-272H = system: EPLC-272H
# How it was run: as §1
# HOP-62 = system: HOP-62
# How it was run: as §1
# LXF-289 = system: LXF-289
# How it was run: as §1
# NCI-H1915 = system: NCI-H1915
# How it was run: as §1
# UMC-11 = system: UMC-11
# How it was run: as §1
# EMC-BAC-2 = system: EMC-BAC-2
# How it was run: as §1
# NCI-H2023 = system: NCI-H2023
# How it was run: as §1
smiles,measurement,setting,value
COc1cc(N2CCC(C(N)=O)CC2)ccc1Nc1nc(N)c(Cl)c(Nc2ccccc2S(=O)(=O)C(C)C)n1 [HG-5-88-01] + CC1(C)CCC(c2ccc(Cl)cc2)=C(CN2CCN(c3ccc(C(=O)NS(=O)(=O)c4ccc(N[C@H](CCN5CCOCC5)CSc5ccccc5)c(S(=O)(=O)C(F)(F)F)c4)cc3)CC2)C1 [Navitoclax] (partner 0.5 µM),relative viability,NCI-H3122; first compound 1.265 µM,0.198
same,relative viability,NCI-H3122; first compound 4 µM,0.255
same,relative viability,NCI-H322M; first compound 0.04 µM,1.16
same,relative viability,NCI-H322M; first compound 0.1265 µM,1.21
same,relative viability,NCI-H322M; first compound 0.4 µM,1.18
same,relative viability,NCI-H322M; first compound 1.265 µM,0.907
same,relative viability,NCI-H322M; first compound 4 µM,1.26
same,relative viability,HCC-78; first compound 0.04 µM,0.749
same,relative viability,HCC-78; first compound 0.1265 µM,0.555
same,relative viability,HCC-78; first compound 0.4 µM,0.363
same,relative viability,HCC-78; first compound 1.265 µM,0.158
same,relative viability,HCC-78; first compound 4 µM,0.297
same,relative viability,NCI-H1993; first compound 0.04 µM,1.06
same,relative viability,NCI-H1993; first compound 0.1265 µM,0.976
same,relative viability,NCI-H1993; first compound 0.4 µM,0.911
same,relative viability,NCI-H1993; first compound 1.265 µM,0.736
same,relative viability,NCI-H1993; first compound 4 µM,0.735
same,relative viability,EPLC-272H; first compound 0.04 µM,1.22
same,relative viability,EPLC-272H; first compound 0.1265 µM,1.05
same,relative viability,EPLC-272H; first compound 0.4 µM,1.28
same,relative viability,EPLC-272H; first compound 1.265 µM,0.982
same,relative viability,EPLC-272H; first compound 4 µM,0.27
same,relative viability,HOP-62; first compound 0.04 µM,0.987
same,relative viability,HOP-62; first compound 0.1265 µM,0.948
same,relative viability,HOP-62; first compound 0.4 µM,0.986
same,relative viability,HOP-62; first compound 1.265 µM,0.919
same,relative viability,HOP-62; first compound 4 µM,1.01
same,relative viability,LXF-289; first compound 0.04 µM,0.937
same,relative viability,LXF-289; first compound 0.1265 µM,0.979
same,relative viability,LXF-289; first compound 0.4 µM,0.972
same,relative viability,LXF-289; first compound 1.265 µM,1.01
same,relative viability,LXF-289; first compound 4 µM,1.02
same,relative viability,NCI-H1915; first compound 0.04 µM,0.771
same,relative viability,NCI-H1915; first compound 0.1265 µM,0.783
same,relative viability,NCI-H1915; first compound 0.4 µM,0.813
same,relative viability,NCI-H1915; first compound 1.265 µM,0.845
same,relative viability,NCI-H1915; first compound 4 µM,0.669
same,relative viability,UMC-11; first compound 0.04 µM,0.338
same,relative viability,UMC-11; first compound 0.1265 µM,0.376
same,relative viability,UMC-11; first compound 0.4 µM,0.333
same,relative viability,UMC-11; first compound 1.265 µM,0.322
same,relative viability,UMC-11; first compound 4 µM,0.303
same,relative viability,EMC-BAC-2; first compound 0.04 µM,1.11
same,relative viability,EMC-BAC-2; first compound 0.1265 µM,1.23
same,relative viability,EMC-BAC-2; first compound 0.4 µM,1.12
same,relative viability,EMC-BAC-2; first compound 1.265 µM,1.05
same,relative viability,EMC-BAC-2; first compound 4 µM,1.22
same,relative viability,NCI-H2023; first compound 0.04 µM,1.01
same,relative viability,NCI-H2023; first compound 0.1265 µM,0.94
same,relative viability,NCI-H2023; first compound 0.4 µM,0.934
same,relative viability,NCI-H2023; first compound 1.265 µM,0.787
same,relative viability,NCI-H2023; first compound 4 µM,0.804
